These results are taken from patent US20250099478A1, “PLASMA KALLIKREIN INHIBITORS” (Merck Sharp & Dohme LLC, priority 2022, published 2025).

One assay addresses T1, Human plasma kallikrein (Homo sapiens, UniProt P03952).
T1 construct: yields a heavy chain (371 amino acids) and a light chain (248 amino acids); purchased Enzyme Research Laboratories
In words: Plasma Kallikrein Assay. In kind it is biochemical. As to conditions: purified Human plasma kallikrein 0.5 nM, substrate Acetyl-K-P-R-AFC; read-out: PKal IC50. Put shortly: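 Purified human plasma kallikrein (0.5 nM) hydrolysing fluorogenic Acetyl-K-P-R-AFC ([…]) in 50 mM HEPES pH 7.4, 150 mM NaCl, 5 mM CaCl2, 0.1% PEG 8000, at rt or 37 °C after enzyme–inhibitor equilibration. IC50 from four-parameter logistic fit; Ki via Cheng–Prusoff.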

The target in a further assay is T2, human factor XIa (Homo sapiens, UniProt P03951).
T2 construct: with human (0.04 nM) factor XIa
T2 sequence (P03951 388-625 limits assumed): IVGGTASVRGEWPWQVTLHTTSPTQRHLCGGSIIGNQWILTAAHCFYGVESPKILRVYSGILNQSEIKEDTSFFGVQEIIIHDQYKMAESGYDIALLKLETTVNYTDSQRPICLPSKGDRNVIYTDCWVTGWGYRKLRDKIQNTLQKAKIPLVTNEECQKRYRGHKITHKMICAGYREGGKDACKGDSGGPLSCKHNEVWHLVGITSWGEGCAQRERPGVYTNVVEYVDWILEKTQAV
T2 sequence (P03951 19-387 partner limits assumed): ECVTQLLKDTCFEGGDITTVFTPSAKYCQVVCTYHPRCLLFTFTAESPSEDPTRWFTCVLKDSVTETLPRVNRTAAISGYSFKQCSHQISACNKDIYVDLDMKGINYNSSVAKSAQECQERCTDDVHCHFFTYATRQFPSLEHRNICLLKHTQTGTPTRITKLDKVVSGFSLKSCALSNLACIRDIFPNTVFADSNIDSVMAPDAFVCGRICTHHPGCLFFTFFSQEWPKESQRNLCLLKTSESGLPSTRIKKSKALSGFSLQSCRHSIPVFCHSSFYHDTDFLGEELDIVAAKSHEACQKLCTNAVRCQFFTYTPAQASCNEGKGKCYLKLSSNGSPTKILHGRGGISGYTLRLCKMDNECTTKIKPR
Put plainly: Factor XIa Assay. In kind it is biochemical. To be noted: human factor XIa 0.04 nM, substrate GPR-AFC, 25° C. How it is done:
The effectiveness of a compound of the present invention as an inhibitor of Coagulation factor XIa can be determined using a relevant purified serine protease, and an appropriate synthetic substrate. The rate of hydrolysis of the chromogenic or fluorogenic substrate by the relevant serine protease was measured both in the absence and presence of compounds of the present invention. Assays were conducted at rt or at 37° C. […] A decrease in the rate of fluorescence change in the presence of inhibitor is indicative of enzyme inhibition. Such methods are known to one skilled in the art. The results of this assay are expressed as the half-maximal inhibitory concentrations (IC50), or the inhibitory constant, Ki.
Compounds were pre-incubated for 30 min at 25° C. with human (0.04 nM) factor XIa in 50 mM HEPES buffer with 150 mM sodium chloride, 5 mM calcium chloride, 0.1% PEG 8000, pH 7.4. factor XIa enzymatic activity was determined by addition of the substrate glycine-proline-arginine-7-amido-4-trifluoromethylcoumarin (GPR-AFC) and measurement of the fluorescence at 400/505 nm after a 60 min incubation at 25° C. The % inhibition for each data point was calculated from the data and analyzed using the log (inhibitor) vs. response four parameters equation to determine the half-maximal inhibitory concentrations (IC50). The IC50 were converted to equilibrium inhibitory constants (Ki) using the Cheng-Prusoff equation.

T1 sequence (P03952 391-638 limits assumed): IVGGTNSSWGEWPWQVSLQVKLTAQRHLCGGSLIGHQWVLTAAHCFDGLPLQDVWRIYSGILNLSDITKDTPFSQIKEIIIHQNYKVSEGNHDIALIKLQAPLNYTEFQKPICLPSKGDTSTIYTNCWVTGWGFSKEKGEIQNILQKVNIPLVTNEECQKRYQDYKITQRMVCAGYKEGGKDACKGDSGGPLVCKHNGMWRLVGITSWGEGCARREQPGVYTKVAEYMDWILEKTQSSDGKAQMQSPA
T1 sequence (P03952 20-390 partner limits assumed): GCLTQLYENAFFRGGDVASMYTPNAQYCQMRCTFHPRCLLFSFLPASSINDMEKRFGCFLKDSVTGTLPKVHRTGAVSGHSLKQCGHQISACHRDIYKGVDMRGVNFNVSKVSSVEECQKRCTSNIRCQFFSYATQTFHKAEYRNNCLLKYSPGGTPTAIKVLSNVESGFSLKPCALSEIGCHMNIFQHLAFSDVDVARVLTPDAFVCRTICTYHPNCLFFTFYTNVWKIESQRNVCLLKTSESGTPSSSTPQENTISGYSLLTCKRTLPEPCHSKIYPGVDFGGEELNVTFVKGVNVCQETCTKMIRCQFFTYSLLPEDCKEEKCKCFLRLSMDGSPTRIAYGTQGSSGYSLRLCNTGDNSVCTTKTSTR

By IC50 is commonly meant the midpoint of a concentration-inhibition curve. For `CCC(c1ccc(F)cc1)c1nnc(C(=O)N2CC(C)(C)C[C@@]3(C2)OC(=O)Nc2ccc(Cl)c(F)c23)[nH]1` (single isomer, unassigned) [Example 103], the IC50 was found to be 7 nM at Human plasma kallikrein and 1950 nM at human factor XIa.
Consider `CC[C@H](c1cc(C)c2nc[nH]c2c1)c1n[nH]c(C(=O)N2CCC[C@@]3(C2)OC(=O)Nc2ccc(Cl)c(F)c23)n1` [Example 110, (R)-6-Chloro-5-fluoro-1′-(3-((R)-1-(4-methyl-1H-benzo[d]imidazol-6-yl)propyl)-1H-1,2,4-triazole-5-carbonyl)spiro[benzo[d][1.3]oxazine-4,3′-piperidin]-2(1H)-one], for which the figures for the IC50 on Human plasma kallikrein and on human factor XIa were 1 nM and 1220 nM, respectively.
The corresponding values for `CO[C@H](C)[C@H](c1ccccc1)n1cc(C(=O)N2CCC[C@@]3(C2)OC(=O)Nc2ccc(Cl)c(F)c23)cn1` [Example 15, (R)-6-Chloro-5-fluoro-1′-(1-((1S,2R)-2-methoxy-1-phenylpropyl)-1H-pyrazole-4-carbonyl)spiro[benzo[d][1,3]oxazine-4,3′-piperidin]-2(1H)-one] are 38.1 nM and 2710 nM.
On to `CCC(c1c(C)noc1C)n1cc(C(=O)N2CCC[C@@]3(C2)OC(=O)Nc2ccc(Cl)c(F)c23)cn1` (single isomer, unassigned) [Example 44], for which the IC50 at Human plasma kallikrein amounted to 5.9 nM; at human factor XIa it was 2420 nM.
In the case of `O=C1Nc2ccc(Cl)c(F)c2[C@@]2(CCCN(C(=O)c3cnc(Cc4ccc(F)cc4)[nH]3)C2)O1` [Example 76, (R)-6-Chloro-5-fluoro-1′-(2-(4-fluorobenzyl)-1H-imidazole-5-carbonyl)spiro[benzo[d][1,3]oxazine-4,3′-piperidin]-2(1H)-one], the figures for the IC50 at Human plasma kallikrein and against human factor XIa were 16.1 nM and 4580 nM, respectively.
In the case of `CCC(c1ccc2ncncc2c1)n1cc(C(=O)N2CCC[C@@]3(C2)OC(=O)Nc2ccc(Cl)c(F)c23)cn1` (single isomer, unassigned) [Example 42], the figures for the half-inhibitory concentration (IC50) on Human plasma kallikrein and against human factor XIa were 14.1 nM and 5230 nM, respectively.
For `COC1(CC(c2ccccc2)c2c[nH]c(C(=O)N3CCC[C@@]4(C3)OC(=O)Nc3ccc(Cl)c(F)c34)n2)CC1` (single isomer, unassigned) [Example 75, (R)-6-Chloro-5-fluoro-1′-(4-((R or S)-2-(1-methoxycyclopropyl)-1-phenylethyl)-1H-imidazole-2-carbonyl)spiro[benzo[d][1,3]oxazine-4,3′-piperidin]-2(1H)-one], in that order: 5.7 nM and 322 nM.
For `CCCCC(O)(c1ccc(F)cc1)c1ncc(C(=O)N2CCC[C@@]3(C2)OC(=O)Nc2ccc(Cl)c(F)c23)[nH]1` (stereo partly drawn) [Example 81, (3′R)-6-Chloro-5-fluoro-1′-(2-(1-(4-fluorophenyl)-1-hydroxypentyl)-1H-imidazole-5-carbonyl)spiro[benzo[d][1.3]oxazine-4,3′-piperidin]-2(1H)-one], in that order: 8.7 nM and 2300 nM.
The corresponding values for `CCC(c1cccc(S(C)(=O)=O)c1)n1cc(C(=O)N2CCC[C@@]3(C2)OC(=O)Nc2ccc(Cl)c(F)c23)cn1` (single isomer, unassigned) [Example 31] are 9 nM and 2460 nM.
As to `O=C1Nc2ccc(Cl)c(F)c2[C@@]2(CCCN(C(=O)c3cnc(C(c4ccc(F)cc4)C(F)(F)F)[nH]3)C2)O1` (single isomer, unassigned) [Example 83], the IC50 on Human plasma kallikrein was 21.3 nM; against human factor XIa, 2700 nM.
The corresponding values for `C[C@@H](O)[C@H](c1ccccc1)n1cc(C(=O)N2CCC[C@@]3(C2)OC(=O)Nc2ccc(Cl)c(F)c23)cn1` [Example 16, (R)-6-Chloro-5-fluoro-1′-(1-((1S,2R)-2-hydroxy-1-phenylpropyl)-1H-pyrazole-4-carbonyl)spiro[benzo[d][1,3]oxazine-4,3′-piperidin]-2(1H)-one] are 40.3 nM and 1450 nM.
For `Cc1cc(Cc2nnc(C(=O)N3CCC[C@@]4(C3)OC(=O)Nc3ccc(Cl)c(F)c34)[nH]2)cc2[nH]ncc12` [Example 124, (R)-6-Chloro-5-fluoro-1′-(5-((4-methyl-1H-indazol-6-yl)methyl)-4H-1,2,4-triazole-3-carbonyl)spiro[benzo[d][1,3]oxazine-4,3′-piperidin]-2(1H)-one], in that order: 13.5 nM and 7760 nM.
As to `CCC(c1ccc(F)cc1)c1c[nH]c(C(=O)N2CCC[C@@]3(C2)OC(=O)Nc2ccc(Cl)c(F)c23)n1` (stereo partly drawn) [Example 70, (4R)-6-Chloro-5-fluoro-1′-(4-(1-(4-fluorophenyl)propyl)-1H-imidazole-2-carbonyl)spiro[benzo[d][1,3]oxazine-4,3′-piperidin]-2(1H)-one], the IC50 on Human plasma kallikrein was 5.7 nM; against human factor XIa, 946 nM.
The corresponding values for `O=C1Nc2ccc(Cl)c(F)c2[C@@]2(CCCN(C(=O)c3cnc(C(O)c4ccc(F)cc4)[nH]3)C2)O1` (single isomer, unassigned) [Example 78] are 13.7 nM and 3850 nM.
For `CCC(c1ccc(F)c(Cl)c1)c1nnc(C(=O)N2CCC[C@@]3(C2)OC(=O)Nc2ccc(Cl)c(F)c23)[nH]1` (single isomer, unassigned) [Example 97], the IC50 was found to be 13.8 nM on Human plasma kallikrein and 8750 nM at human factor XIa.
For `CCC(F)(c1ccc(F)cc1)c1n[nH]c(C(=O)N2CCC[C@@]3(C2)OC(=O)Nc2ccc(Cl)c(F)c23)n1` (single isomer, unassigned) [Example 129, (3′R)-6-Chloro-5-fluoro-1′-(3-(1-fluoro-1-(4-fluorophenyl)propyl)-1H-1,2,4-triazole-5-carbonyl)spiro[benzo[d][1.3]oxazine-4,3′-piperidin]-2(1H)-one], in that order: 8.9 nM and 4300 nM.
The corresponding values for `CCC(c1ccc(F)cc1)c1c[nH]c(C(=O)N2CCC[C@@]3(C2)OC(=O)Nc2ccc(Cl)c(F)c23)n1` (single isomer, unassigned) [Example 72, (R)-6-Chloro-5-fluoro-1′-(4-((S or R)-1-(4-fluorophenyl)propyl)-1H-imidazole-2-carbonyl)spiro[benzo[d][1,3]oxazine-4,3′-piperidin]-2(1H)-one] are 9.3 nM and 1430 nM.
As to `O=C1Nc2ccc(Cl)c(F)c2[C@@]2(CCCN(C(=O)c3nnc(Cc4ccccc4)[nH]3)C2)O1` [Example 86, (R)-1′-(5-Benzyl-4H-1,2,4-triazole-3-carbonyl)-6-chloro-5-fluorospiro[benzo[d][1,3]oxazine-4,3′-piperidin]-2(1H)-one], the IC50 on Human plasma kallikrein stood at 24.8 nM; against human factor XIa, 6890 nM.
Turning to `CCC(c1c(C)noc1C)n1cc(C(=O)N2CCC[C@@]3(C2)OC(=O)Nc2ccc(Cl)c(F)c23)cn1` (single isomer, unassigned) [Example 43], the figures for the IC50 at Human plasma kallikrein and on human factor XIa were 27.1 nM and 4670 nM, respectively.
The corresponding values for `CCC(c1cc(C)c2nc[nH]c2c1)n1cc(C(=O)N2CCC[C@@]3(C2)OC(=O)Nc2ccc(Cl)c(F)c23)cn1` (single isomer, unassigned) [Example 46, (4R)-6-Chloro-5-fluoro-1′-(1-((S or R)-1-(4-methyl-1H-benzo[d]imidazol-6-yl)propyl)-1H-pyrazole-4-carbonyl)spiro[benzo[d][1,3]oxazine-4,3′-piperidin]-2(1H)-one] are 1.2 nM and 846 nM.
Consider `O=C1Nc2ccc(Cl)c(F)c2[C@@]2(CC(C3CC3)CN(C(=O)c3cnn(Cc4ccccc4)c3)C2)O1` (stereo partly drawn) [Example 22, (4R)-1′-(1-Benzyl-1H-pyrazole-4-carbonyl)-6-chloro-5′-cyclopropyl-5-fluorospiro[benzo[d][1,3]oxazine-4,3′-piperidin]-2(1H)-one], for which the IC50 on Human plasma kallikrein was 7.9 nM; on human factor XIa it was 1370 nM.
For `O=C1Nc2ccc(Cl)c(F)c2[C@@]2(CCCN(C(=O)c3nnc(C4(c5ccc(F)cc5)CCC4)[nH]3)C2)O1` [Example 88, (R)-6-Chloro-5-fluoro-1′-(5-(1-(4-fluorophenyl)cyclobutyl)-4H-1,2,4-triazole-3-carbonyl)spiro[benzo[d][1,3]oxazine-4,3′-piperidin]-2(1H)-one], in that order: 13.7 nM and 4440 nM.
For `CCC(c1cccc(S(C)(=O)=O)c1)n1cc(C(=O)N2CCC[C@@]3(C2)OC(=O)Nc2ccc(Cl)c(F)c23)cn1` (single isomer, unassigned) [Example 30], in that order: 5.7 nM and 4350 nM.
On to `CCC(c1ccnc(C(F)(F)F)c1)n1cc(C(=O)N2CCC[C@@]3(C2)OC(=O)Nc2ccc(Cl)c(F)c23)cn1` (single isomer, unassigned) [Example 38], for which the IC50 at Human plasma kallikrein stood at 1.8 nM; on human factor XIa, 2060 nM.
